Test results: the METLIN SMRT retention time set (Domingo-Almenara et al. 2019)

Assay: gradient 5% acetonitrile 3 min, to 50% in 2 min, to 85% in 15 min, held 3 min, 100 µL/min
Settings: column: Zorbax Extend-C18 2.1 x 50 mm; eluents: water / acetonitrile, 0.1% formic acid
Method in brief: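 A Zorbax Extend-C18 column (2.1 × 50 mm, 1.8 μm) run at 100 μL/min with water and acetonitrile, both containing 0.1% formic acid, separated mixtures of ~100 pure standards. The HPLC was coupled to a quadrupole time-of-flight mass spectrometer operated in positive and negative ionization mode, with dead and dwell volumes of 40 μL and 900 μL. Each retention time was taken from a computationally picked adduct peak that was then manually inspected.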

Structure (SMILES)	RP-LC retention time [s]
CCCOc1nc2ccccc2nc1N1CCCC(C(=O)Nc2ccc(OC)cc2OC)C1 (centres undefined)	1280
COc1ccccc1Cc1nc(-c2cn(-c3ccc(F)cc3)nn2)no1	1020
CC(CCc1ccccc1)NC(=O)C1CCN(S(=O)(=O)c2ccc3c(c2)CCCC(=O)N3)CC1 (centres undefined)	809
COc1ncccc1CNC(=O)CCc1c(C)nn(C)c1C	580
O=C1C2N=NN(Cc3nc(-c4ccccc4Cl)no3)C2C(=O)N1c1ccc2c(c1)OCO2 (centres undefined)	1020
Cc1ccc(CNC(=O)N2CCC(N3CCN(Cc4cccc(F)c4)C(=O)C3=O)CC2)cc1	757
Cc1ccc2nc(-c3ccc(O)cc3)c(Nc3ccc4c(c3)OCCO4)n2c1	646
CCOc1ccc(NC(=O)Cn2cnc3cc4c(cc32)OCCO4)cc1	661
O=C(NCC(O)c1ccsc1)Nc1cccc(Cl)c1 (centres undefined)	734
CCn1c(=O)c2ccccc2n(Cc2nc(-c3ccc(SC)cc3)no2)c1=O	926
Cc1cccc(-c2nc(Cn3nnc(-c4nc(-c5ccccc5Br)no4)c3C)c(C)o2)c1	1310
CCOc1ccc(Cl)cc1S(=O)(=O)N1CCC(C(=O)N2CCCC2)CC1	820
COCCNc1nnc(-c2nc(-c3ccc(F)cc3)no2)c2ccccc12	801
CC1(C(=O)NCc2ccc3c(c2)OCO3)CCN(C(=O)Nc2ccccc2C(F)(F)F)CC1	812
O=C1CC(c2noc(-c3ccc(F)cc3)n2)CN1c1ccc(Cl)cc1 (centres undefined)	1070
CC(C)(N)C(=O)N[C@H](COCc1ccccc1)C(=O)N1CCC2(CC1)CN(S(C)(=O)=O)c1ccccc12	777
CCNC(=O)c1nc2cccnc2n(C)c1=O	615
O=C(NCCC1CCN(C(=O)Nc2ccc(F)cc2)CC1)c1ccoc1	716
CCOc1ccccc1NC(=O)Cn1c(CC)nc2c(c1=O)CN(Cc1ccccc1)CC2	687
CCc1noc(NC(C)=O)c1-c1ccc(C)c(S(=O)(=O)Nc2cc(C)ccc2OC)c1	884
Cc1ccc2nc(N3CCNCC3)c(-c3noc(-c4ccccc4)n3)cc2c1	770
O=C(CN1CCN(Cc2ccc(F)cc2)C1=O)NCc1cccc(F)c1	790
Cc1ccc(-n2nc(C(=O)N3CCN(c4ccccn4)CC3)c3ncn(C)c(=O)c32)cc1	608

Structure (SMILES)	RP-LC retention time [s]
Cc1nnc(CNC(=O)OC(C)(C)C)n1-c1ccccc1	624
COc1ccc(-c2c(NC(=O)c3ccco3)oc3c(C)cccc3c2=O)cc1OC	747
CC(C)n1c(N2CCCN(C(=O)c3ccnn3C)CC2)cc(=O)n(C(C)C)c1=O	707
O=C(COc1ccc([N+](=O)[O-])cc1Cl)N1CCOCC1	846
Cc1ccsc1C(=O)N1CC(Oc2cccc(-c3nc(-c4ccccc4)no3)c2)C1	1280
Cc1ccc(NC(=O)N2CC(c3nc(C)no3)C3(CCOCC3)C2)c(Cl)c1 (centres undefined)	796
O=C(CNC(=O)c1cc2ccccc2o1)Nc1cccc(C(F)(F)F)c1	928
CCCNC(=O)Cc1csc(-n2nc(C)c(Cl)c2C)n1	904
O=C(Nc1ccccc1Cl)C1=Cc2ccccc2OC1	975
CCSc1ccccc1C(=O)NCC1(c2ccccc2OC)CCOCC1	843
Cc1ccn2c(C(C)O)nnc2c1 (centres undefined)	574
COc1ccc(CC(=O)N2CCCC2c2cc(C(C)C)no2)cc1 (centres undefined)	868
OCCCc1nc2ccccc2n1Cc1ccccc1Cl	568
CC(=O)OCCn1c([N+](=O)[O-])cnc1/C=[N+](\[O-])C1CCCCC1	753
CC(Oc1ccc(Cl)cc1)C(=O)N1CCN(c2cc(-c3ccccc3)[nH]n2)CC1 (centres undefined)	884
COc1ccc(NC(=O)c2cnc3c(c2)c(=O)n(C)c(=O)n3-c2ccccc2)cc1OC	771
Cc1nn(CC(=O)NCc2ccco2)c(=O)c2c(-n3cccc3)n(-c3ccccc3)nc12	881
Cc1sc(C)c(S(=O)(=O)N2CCN(c3ccc(F)cc3)CC2)c1-c1cc(C(F)(F)F)on1	1270
COc1cc(NC(=O)c2cc(C(C)(C)C)n3nccc3n2)cc(OC)c1	721
CC(C)OC(=O)CCC/C=C\C[C@@H]1[C@@H](CC[C@@H](O)CCc2ccccc2)[C@H](O)C[C@@H]1O	1020
CC(C)NC(=O)Cn1ccn2nc(-c3ccccc3)c(CO)c2c1=O	666
O=C(c1cc(-c2ccco2)on1)N1CCCC(c2nnc(-c3ccccc3F)s2)C1 (centres undefined)	923
COc1nc2ccccc2nc1N1CCCC(C(=O)Nc2ccc(Cl)cc2)C1 (centres undefined)	1240

Structure (SMILES)	RP-LC retention time [s]
COc1ccc(NC(=O)c2c(OC)cc(=O)n3c2CCCC3)cc1OC	628
COc1ccc(-c2nnc(-c3ccc(C)c(S(=O)(=O)N4CCCCC4)c3)o2)cc1OC	1060
Cc1ccn2cc(-c3ccc(NC(=O)c4ccccc4)cc3)nc2n1	636
CCOC(=O)CC(=O)CSc1nc2sc(C)cc2c(=O)n1C	961
CCOC(=O)C1=C(CN2CCC(c3ccccc3)C2)NC(=O)NC1c1ccc(F)cc1 (centres undefined)	687
Cc1ccn2cc(C(=O)N3CCN(C4CCCCC4)CC3)nc2c1	566
O=C(CCc1ccc2[nH]ccc2c1)NCc1ccc(F)cc1	793
CCc1ccc(Nc2nc(C(=O)NCCc3ccco3)nc3ccccc23)cc1	855
CC(O)c1nc2ccccc2n1CC(=O)N(c1ccccc1)C(C)C (centres undefined)	647
O=S(=O)(c1cccs1)N1CCN(c2ncccn2)CC1	754
CC1(C(=O)NCc2ccc(F)cc2)CCCN(C(=O)NC2COc3ccccc3C2)C1 (centres undefined)	875
COC(=O)c1cccc(C(=O)Nc2ccc(F)cc2C)n1	853
CC(C)c1ccc(NC(=O)Cn2cnc3nc(N4CCC(C(=O)NC5CC5)CC4)sc3c2=O)cc1	748
Cc1ccc(CN2CCN(C3CCN(C(=O)Nc4ccc(F)cc4)CC3)C(=O)C2=O)cc1	776
Fc1ccccc1-c1noc(Cc2nnc(-c3cccc(Br)c3)o2)n1	1110
CCn1cc(S(=O)(=O)N2CC(F)(F)C[C@H]2COc2cccnc2)cn1	636
O=C(Nc1nc(-c2ccc3c(c2)OCCO3)cs1)c1cc(Cl)sc1Cl	1120
Cc1nc(Nc2ccc(F)cn2)sc1C(=O)N1CCN(c2ccc(F)cc2)CC1	861
CCC(=O)N1CCc2c([nH]c3ccccc23)C12C(=O)N(C)c1ccccc12 (centres undefined)	828
Cn1c2ccccc2c2cnn(CC(=O)N3CCN(c4ccccn4)CC3)c(=O)c21	943
COc1ccc(-c2nc(N3CCC4(CC3)OCCO4)c3ccccc3n2)cc1	726
CC1CCN(c2ncc3c(n2)CCC(C(=O)NCCC2=CCCCC2)C3)CC1 (centres undefined)	974
CCc1ccc2nc(Nc3ncc4c(n3)CCCC4=O)nc(C)c2c1	650

Structure (SMILES)	RP-LC retention time [s]
COc1ccccc1-n1ccn(Cc2nc(-c3ccc(Cl)cc3)no2)c(=O)c1=O	874
O=C(C(=O)N1CCN(c2ccccc2)CC1)c1c[nH]c2ccccc12	845
CCc1ccccc1-n1c(-c2ccc(Cl)cc2)cn2c3c(=O)n(C)c(=O)n(C)c3nc12	1110
Cc1cc(C(=O)N2CCCC2Cc2noc(C3CCCC3)n2)n[nH]1 (centres undefined)	750
O=C(Cn1nc2n(c1=O)CCCCC2)NCc1ccc(Cl)cc1	702
CCOC(=O)c1c(C)[nH]c(C(=O)N2CCCC(C(=O)NCCC3=CCCCC3)C2)c1C (centres undefined)	893
Cc1nnc2ccc(C(=O)NC(C)C)cn12	590
CCCCCn1c(=O)c2ccccc2n(Cc2nc(-c3ccccc3)no2)c1=O	1240
O=S(=O)(c1cc(F)cc(F)c1)N1CCCC(Cn2c(C3CC3)nc3cccnc32)C1 (centres undefined)	806
Cc1cc(C)cc(C(=O)N2CCCC2COc2ccc(C(=O)NC(C)C)cc2)c1 (centres undefined)	922
Cc1nc(C)c(C(=O)N2CCC(C3CCN(S(C)(=O)=O)CC3)C2)s1 (centres undefined)	656
COc1ccc(S(=O)(=O)N2C[C@H]3CN(C(=O)NCC(C)C)C[C@@H](C2)O3)cc1	729
O=C(c1cc(F)ccc1F)N1CCN(C(=O)c2nnn3c2COC(c2ccc(Cl)cc2)C3)CC1 (centres undefined)	937
CCCN1CCN(C(=O)C2CCN(S(=O)(=O)c3ccc4c(c3)sc(=O)n4CCC)CC2)CC1	658
CCCCCn1c(=O)c2ccccc2n(Cc2nc(-c3ccc(SC)cc3)no2)c1=O	1290
COCc1nc2cccnc2n1C1CCN(C(=O)Nc2cccc(Br)c2)CC1	768
CC(C)NC(=O)c1ccc2c(c1)nc(CN(C)C(=O)Nc1ccc3c(c1)OCCO3)n2C	616
CCN(C(=O)c1ccccc1OC)c1nc(-c2ccccc2)cs1	1210
CSc1cccc(NC(=O)N2CCCC(C)(C(=O)NCc3ccc(C)cc3)C2)c1 (centres undefined)	989
CCn1c(CCNC(=O)c2ccc(F)cc2F)nc2cccnc21	641
